Measured values reported in patent US11541019B2, “Compositions for use in the treatment of diabetes” (University of Ulster, priority 2015, dated 2023).
Like-named read-outs stand apart in the source and are kept apart here.

What was measured:
[1] = tested on: high fat fed diabetic NIH Swiss mice; assay: Long-term daily oral administration in high fat fed diabetic mice; assay type: in vivo; settings: for pancreatic insulin content: HFF model; for plasma insulin following oral glucose / plasma glucose following a glucose load: after long-term daily administration; for plasma glucose following a glucose load: glucose 18 mmol/kg; for increase in circulating GLP-1: at 30 min after oral glucose, long term study; for plasma GLP-1: at the end of the study; for insulin sensitivity: insulin 25 U/kg; for body weight: daily oral for 21 days; for non-fasting plasma insulin: after 21 days; for decrease in plasma glucose, area under the curve: over 21 days; for GLP-1 secretion: over the long term study, after oral glucose
Procedure: […] In order to confirm diabetes, an oral glucose tolerance test (OGTT) was performed. Food intake, fluid intake, body weight, non-fasted plasma glucose and insulin concentrations were monitored every 2- to 4-days as indicated in the accompanying drawings. At the end of the study, glucose tolerance (18 mmol/kg body weight) and insulin sensitivity (25 U/kg body weight) were assessed. Mice were anesthetised by isoflurane and killed by cervical dislocation. Dual energy X-ray absorption (DEXA) scanning was performed after prior calibration and quality control with the aluminium/lucite phantom (0.069 g/cm2, 12.0% fat) using a PIXImus system (software version 1.4x).

[2] = tested on: BRIN-BD11 cells; assay: Intracellular Ca2+ in BRIN-BD11 cells (Flex calcium assay kit); assay type: cell-based; settings: 10^−4 mol/L, 16.7 mM glucose
Procedure: (§1) For intracellular Ca2+ measurement, monolayers of BRIN-BD11 cells were seeded overnight at a density of 80,000 cells per well in a 96-well black walled clear bottom plate. Cells were washed with 100 μl of Krebs buffer and incubated for 1 hour with Flex calcium assay kit reagent at 37° C. GPR84 at 10^−4 mol/L were added at 5.6 mmol/L and 16.7 mmol/L glucose. Fluorometric data were obtained using the FLEX Station scanner and test solutions were transferred using fluid transfer workstation at a wavelength of 525 nm (Molecular Devices). For cAMP determination, BRIN-BD11 cells were seeded in a 96-well plate at a density of 30,000 cells per well. Cells were washed with 300 μl Krebs buffer for 40 min and 150 μl of compositions of the present invention at 10^−10-10^−4 mol/L were tested at […] glucose. After 20 minutes, test solutions were removed and 0.1M HCL (150 μL) was added to lyse the cells. Total cAMP production in the cell supernatants were measured using cAMP enzyme immunoassay kit according to the manufacturer's protocol (Sigma, Poole, UK).

[3] = tested on: BRIN-BD11 cells; assay: Acute insulin secretion from clonal BRIN-BD11 cells (radioimmunoassay); assay type: cell-based; settings: for concentrations that enhanced insulin release: tested 10^−12-10^−4 mol/L; for EC50: Rattus norvegicus, BRIN-BD11, 20 min, 20 min incubation, read-out: EC50 of enhanced insulin release
Procedure: (§2) Insulin-secreting BRIN-BD11 cells were cultured with RPMI-1640 media (11.1 mM glucose) containing antibiotics (100 U/ml penicillin and 0.1 mg/ml streptomycin) and 10% foetal calf serum at 37° C. in an atmosphere of 95% air and 5% carbon dioxide. For acute insulin secretion studies, cells were detached using trypsin/EDTA and incubated overnight in 24 well plates with 150,000 cells per well. Cells were then pre-incubated for 40 minutes at 1.1 mmol/l glucose in Krebs buffer (comprising 4.7 mmol/l KCL, 115 mmol/l NaCl, 1.28 mmol/CaCl2, 10 mmol/l NaHCO3, 5 g/l BSA, 1.2 mmol/l KH2PO4, 1.2 mmol/l MgSO47H2O pH 7.4). Test incubations were then performed at 37° C. for 20 minutes. DIM, indole-3-carbinol, embelin, [6]-gingerol, and [6]-shogaol at 10^−12-10^−4 mol/L were tested at both 5.6 mmol/L and 16.7 mmol/L glucose, as indicated in the accompanying drawings. Supernatants were removed, evaluated for lactate dehydrogenase (LDH) release as an indicator of cytotoxicity (as per manufacturer's protocol) or frozen at −20° C. until determination of insulin by radioimmunoassay.

[4] = tested on: NIH Swiss mice; assay: Acute effects on plasma glucose and insulin after oral glucose load; assay type: in vivo; settings: for circulating (plasma) glucose after glucose load / plasma insulin (insulin release) after glucose load: high fat fed mice, oral 50 μmol/kg with glucose 18 mmol/kg
Procedure: Adult male (20-22 week) NIH Swiss mice (Harlan UK Ltd) were individually housed in an air-conditioned room at 22±2° C. with 12 hour light: 12 hour darkness cycles. […] Non-fasted NIH Swiss mice (n=6) received an oral injection of glucose alone (18 mmol/kg body weight) or in combination with compositions of the present invention (50 μmol/kg body weight). Blood samples were obtained from the cut tip from tail vein of conscious mice and centrifuged at 13,000 rpm for 3 minutes at 4° C. Plasma glucose was measured by an automated glucose oxidase procedure using a Beckman glucose analyser and insulin determined by radioimmunoassay. All animal experiments were carried out in accordance with the UK Animal (Scientific Procedures) Act 1986.

[5] = tested on: BRIN-BD11 cells; assay: cAMP production in BRIN-BD11 cells (enzyme immunoassay); assay type: cell-based; settings: 11.1 mM glucose, 20 min
Procedure: as §1

[6] = tested on: BRIN-BD11 cells; assay: LDH release from BRIN-BD11 cells as indicator of cytotoxicity; assay type: cell-based
Procedure: as §2

[7] = high fat fed mice, daily administration
[8] = 5.6 mM or 16.7 mM glucose, not separated at the place

Row | Compound | pancreatic insulin content ([1]; daily administration) | plasma insulin following oral glucose ([1]; high fat fed mice) | plasma glucose following a glucose load ([1]; high fat fed mice) | increase in circulating GLP-1 ([1]; high fat fed mice) | plasma GLP-1 ([1]; high fat fed mice) | total body fat (DEXA) [1, 7] | insulin sensitivity [1, 7] | body weight ([1]; high fat fed mice) | non-fasting plasma insulin ([1]; high fat fed mice, daily oral) | decrease in plasma glucose, area under the curve ([1]; high fat fed mice, daily oral) | GLP-1 secretion ([1]; high fat fed mice) | intracellular Ca2+ concentrations [2] | concentrations that enhanced insulin release ([3]; 5.6 mM glucose) | concentrations that enhanced insulin release ([3]; 16.7 mM glucose) | EC50 ([3]; 5.6 mM basal glucose) | EC50 ([3]; 16.7 mM stimulatory glucose) | circulating (plasma) glucose after glucose load [4] | plasma insulin (insulin release) after glucose load [4] | cAMP production / involvement of cAMP pathway [5] | cytotoxicity (LDH release) ([6]; 5.6 mM glucose) | also measured
1 | c1ccc2c(Cc3c[nH]c4ccccc34)c[nH]c2c1 [Diindolylmethane, 3,3′-methanediylbis(1H-indole)] | reduced pancreatic insulin content | decreased plasma insulin | attenuated | 61% | raised | decreased body fat | decreased | decreased body weight after 15 days | augmented | 18% | increased GLP-1 secretion | increased intracellular Ca2+ concentrations | 10^−8-10^−4 mol/L | 10^−9-10^−4 mol/L | 130 nM | 1000 nM | decreased circulating glucose | increase in insulin release | involves the cAMP-dependent pathway | No cytotoxicity | energy intake ([1]; high fat fed mice, daily oral): decreased energy intake; fluid intake ([1]; high fat fed mice, daily oral): no effect on fluid intake; non-fasting plasma glucose ([1]; high fat fed mice, daily oral, at 21 days): decrease in plasma glucose; cytotoxicity (LDH release) ([6]; 16.7 mM glucose): No cytotoxicity
2 | CCCCCCCCCCCC1=C(O)C(=O)C=C(O)C1=O [Embelin, 2,5-dihydroxy-3-undecylcyclohexa-2,5-diene-1,4-dione] | reduced pancreatic insulin content | decreased plasma insulin | significantly decreased | 45% | raised | no change in total body fat | decreased | no effect on body weight | augmented | 17% | increased GLP-1 secretion | increased intracellular Ca2+ concentrations | 10^−9-10^−4 mol/L | 10^−10-10^−4 mol/L | 730 nM | 210 nM | decreased circulating glucose | increase in insulin release | involves the cAMP-dependent pathway | No cytotoxicity | low-density lipoprotein (LDL) cholesterol [1, 7]: reduced; total cholesterol [1, 7]: reduced; non-fasting plasma glucose ([1]; high fat fed mice, daily oral, after 9 days of treatment): significant decrease in plasma glucose; cytotoxicity (LDH release) ([6]; 16.7 mM glucose): No cytotoxicity
3 | OCc1c[nH]c2ccccc12 [Indole-3-carbinol, 1H-Indol-3-ylmethanol] |  |  |  |  |  |  |  |  |  |  |  |  | 10^−7-10^−4 mol/L | 10^−6-10^−4 mol/L | 1500 nM | 400 nM | significantly decreased |  |  |  | cytotoxicity (LDH release) [6, 8]: No cytotoxicity
4 | CCCCC[C@H](O)CC(=O)CCc1ccc(O)c(OC)c1 [[6]-gingerol, (5S)-5-hydroxy-1-(4-hydroxy-3-methoxyphenyl)decan-3-one] |  |  |  |  |  |  |  |  |  |  |  |  | 10^−8-10^−4 mol/L | 10^−8-10^−4 mol/L | 1900 nM | 2800 nM |  |  |  |  | plasma glucose after glucose load ([4]; NIH Swiss mice, diet not separated (normal chow and high fat), oral with glucose 18 mmol/kg): significant decrease; cytotoxicity (LDH release) [6, 8]: No cytotoxicity
5 | CCCCC/C=C/C(=O)CCc1ccc(O)c(OC)c1 [[6]-shogaol, (E)-1-(4-hydroxy-3-methoxyphenyl)dec-4-en-3-one] |  |  |  |  |  |  |  |  |  |  |  | increased intracellular Ca2+ concentrations |  |  |  |  |  |  | act through the cAMP pathway |  | 
